Experimental data from BigSolDB 2.1.

O=c1cc(-c2ccccc2)oc2cc(O)cc(O)c12
solubility (mole fraction)
Conditions	in DMF	in acetone	in ethanol	in ethyl acetate	in isopropanol	in methanol	in n-butanol	in n-hexane	in n-propanol	in water
293.2 K	0.01	0.00128	0.000455	0.000716	0.000512	0.000226	0.000586	1.4e-07	0.000482	4.61e-09
298.2 K	0.0131	0.00143	0.000505	0.00082	0.000614	0.000238	0.000663	2.95e-07	0.000569	8.63e-09
303.2 K	0.0152	0.00161	0.000637	0.000893	0.000707	0.000299	0.000833	3.8e-07	0.000724	1.26e-08
308.2 K	0.0229	0.00176	0.000709	0.00101	0.000836	0.000324	0.000981	4.5e-07	0.000837	2.57e-08
313.2 K	0.0264	0.00205	0.000822	0.00113	0.00104	0.000406	0.00115	6.78e-07	0.000971	3.96e-08
318.2 K	0.0328	0.00226	0.000903	0.00134	0.00121	0.000453	0.00138	1.08e-06	0.00123	4.82e-08
323.2 K	0.0408	0.00243	0.00113	0.00144	0.0014	0.000576	0.0016	1.25e-06	0.00147	8.41e-08
328.2 K	0.0479	0.00281	0.00144	0.00163	0.00185	0.000711	0.00195	1.7e-06	0.0017	1.28e-07
333.2 K	0.0568	–	0.00171	0.00176	0.00213	0.000813	0.00229	2.21e-06	0.00195	1.88e-07
